Measured values published in US20170007553A1, “METHODS FOR THE PREVENTION AND TREATMENT OF CEREBRAL ISCHEMIA” (Edison Pharmaceuticals, Inc., priority 2009, published 2017).

What was measured:
[1] = fraction of the activity of natural alpha-tocopherol; cited from earlier work
[2] = test system: neuronal cells; conditions: nM/L concentrations; by suppressing early activation of c-Src kinase and 12-lipoxygenase; cited from earlier work
[3] = test system: cerebral ischemia induced in rats (MCAO); assay: Animal cerebral infarct assay, rat middle cerebral artery occlusion (MCAO) with reperfusion; format: in vivo; conditions: for reduction of total infarct size: gavage, 500 mg/kg
[4] = administered at the time of reperfusion, rats

For `Cc1cc(O)cc2c1O[C@](C)(CCC[C@H](C)CCC[C@H](C)CCCC(C)C)CC2` [Delta-tocopherol], the “activity relative to natural alpha-tocopherol” value [1] is given as “one hundredth”.

For `Cc1c(C)c2c(c(C)c1O)CC[C@@](C)(CCC[C@H](C)CCC[C@H](C)CCCC(C)C)O2` [alpha-tocopherol], the “blocking of glutamate-induced death” value [2] is given as “not”.

With `CC(C)=CCC/C(C)=C/CC/C(C)=C/CC[C@@](C)(O)CCC1=C(C)C(=O)C(C)=C(C)C1=O` [alpha-tocotrienol quinone] the “reduction of cerebral edema relative to controls” value [3, 4] was 40%, the “reduction of total infarct volume relative to controls” value [3, 4] was 40% and the “reduction of total ischemic damage relative to controls” value [3, 4] was 40%. The “reduction of total infarct size” value ([3]; administered at reperfusion) was 40% and the “reduction of total infarct size” value ([3]; administered at the time of MCAO) was 40%.

In the case of alpha-tocotrienol, the “blocking of glutamate-induced death” value [2] is listed as “blocked glutamate-induced death”.
